Values after ≈ are worked out from the molar mass of the structure shown.

Consider one compound from patent publication US20110118269A1, “FUSED PYRAZINE COMPOUNDS AS THEIR SALTS, USEFUL FOR THE TREATMENT OF DEGENERATIVE AND INFLAMMATORY DISEASES” (priority 2009, published 2011).

The test system of data set [1] is TNF-α. In words: Septic shock model (LPS induced TNF alpha release). Conditions: 3, 10 and 20 mg/kg, po, once, 30 min before LPS. It counts as in vivo, BALB/cJ female mice. The protocol: Injection of lipopolysaccharide (LPS) induces a rapid release of soluble tumour necrosis factor (TNF-α) into the periphery. This model is used to analyse prospective blockers of TNF release in vivo.
Six BALB/cJ female mice (20 g) per group are treated at the intended dosing once, po. Thirty minutes later, LPS (15 mg/kg; E. coli serotype 0111:B4) is injected ip. Ninety minutes later, mice are euthanized and blood is collected. Circulating TNF alpha levels are determined using commercially available ELISA kits. Dexamethasone (5 mg/kg) is used as a reference anti-inflammatory compound. Compound 1 is efficacious at 3, 10 and 20 mg/kg, po.

Data set [2] can be described thus: Tolerability of compounds in healthy mice (total body weight). The format is in vivo, DBA/1J mice. Conditions: 100 mg/kg/d, po, up to two weeks. The method, then:
This protocol is designed to assess the tolerability of the compounds of the invention in healthy DBA/1J mice to determine the “therapeutic window” as defined by the dosing range between efficacious (mouse therapeutic Collagen-Induced Arthritis model) and toxic doses.
DBA/1J […] mice are used (CERJ (France)), the mice are 10-11 weeks old, and have a body weight of approx 20g.
Compounds are prepared for a dosing regimen of 100 mg/kg/d, po, free base, in a standard volume of injection of 0.1 mL/10 g of mice (equivalent to 10 mg/1 mL). For solution preparations, compounds are dissolved in 0.5% methyl-cellulose and 1% DMSO supplemented with 1 molar equivalent of methanesulfonic acid to ensure full dissolution, once a week.
Groups are randomized based on body weight and treated for up to two weeks. Each group contained 5 mice and received either test compound at 100 mg/kg, a comparison compound at 100 mg/kg/d (Compound A) or vehicle on a daily basis in a dosing volume of 200 μL per mouse.
Potential drug toxicity is monitored by observation every day and by recording body weights three times a week for weight loss. All statistical analyses are performed using Student's t test.
To assess the general tolerability of the treatments, the total body weight is followed throughout the course of the study.

In data set [3] the test system is MMP1 expression by synovial fibroblasts. In words: 'MMP assay': complex trigger induced MMP1 expression by RASFs, compound testing. The format is cell-based. Conditions: Homo sapiens, Fibroblast, 48 hrs. The protocol: A 384-well format ELISA for measurement of MMP1 is developed. Various primary antibodies are tested, as well as various ELISA protocols. The following protocol is developed and validated to measure MMP1 levels in SF supernatant in 384 well plates: white Lumitrac 600 384 well plates (Greiner) are coated with 2 μg/mL anti-MMP1 antibody MAB1346 (Chemicon). The antibody is diluted in buffer 40 (1.21 g Tris base (Sigma), 0.58 g NaCl (Calbiochem) and 5 mL 10% NaN3 (Sigma) in 1 L milliQ water and adjusted to pH 8.5). After overnight incubation at 4° C., plates are washed with PBS (80 g NaCl, 2g KCl (Sigma), 11.5 g Na2HPO4.7H2O and 2 g KH2PO4 in 10 L milliQ; pH 7.4) and blocked with 100 μL/well Casein buffer (2% Casein (VWR International) in PBS). Next day, casein buffer is removed from ELISA plates and replaced by 50 μL/well EC buffer (4 g casein, 2.13 g Na2HPO4 (Sigma), 2 g bovine albumin (Sigma), 0.69 g NaH2PO4.H2O (Sigma), 0.5 g CHAPS (Roche), 23.3 g NaCl, 4 mL 0.5 M EDTA pH 8 (Invitrogen), 5 mL 10% NaN3 in 1 L milliQ and adjusted to pH 7.0). 0.25 mM DTT (Sigma) is added to the thawed samples plates. After removal of the EC buffer, 20 μL of sample is transferred to the ELISA plates. […] Readout is performed on the Luminoscan Ascent Luminometer (Labsystems) with an integration time of 200 msec or with an Envision reader (Perkin Elmer). […]

The nature of data set [4]: Thermodynamic aqueous solubility study by HPLC (Example 5). The format is physicochemical. The following applies: thermodynamic from solid. The text has this:
Quantitation is done by HPLC with reference to a standard calibration curve. […] If there is sufficient solid remaining, the XRPD is collected.

Broadly, the IC50 is the point on the concentration scale where inhibition reaches its midpoint. A higher IC50 goes with lower potency. One may read the solubility as how much of the substance goes into solution per volume. A low value points to little dissolved substance. For `CC(C)N1C[C@@H]2C[C@H]1CN2c1ccc(Nc2ncc(-c3coc(C(N)=O)c3)n3ncnc23)cc1` [Compound 1, 4-{8-[4-((1S,4S)-5-Isopropyl-2,5-diaza-bicyclo[2.2.1]hept-2-yl)-phenylamino]-[1,2,4]triazolo[1,5-a]pyrazin-5-yl}-furan-2-carboxamide], the “efficacy in septic shock model (circulating TNF alpha levels)” value in data set [1] was “efficacious”. Further, the “weight of the animals compared to the vehicle” value in data set [2] is “no statistically significant difference”. In data set [3], this compound returned an IC50 of 100 to 1000 nM. Besides, the solubility turned out to be 300 µg/mL (≈ 654 µM) in data set [4] (buffer pH 2.0, pH 2, aqueous buffer); 10 µg/mL (≈ 21.8 µM) in data set [4] (buffer pH 7.4, pH 7.4, aqueous buffer); 10 µg/mL (≈ 21.8 µM) in data set [4] (pure water, water).
